Experimental data taken from article PMC10700596 (Nature Communications, 2023).
Where “and” joins values, the source holds several entries; their conditions need not be identical. Identical values can stand only once.

How the values were obtained:
Format in all cases: cell-based
[1] = target: 320 GPCRs (Homo sapiens, UniProt Q16581)
[2] = target: 320 GPCRs (Homo sapiens, UniProt Q13255)
[3] = target: 320 GPCRs (Homo sapiens, UniProt P47775)
[4] = target: 320 GPCRs (Homo sapiens, UniProt P34972)
Sequence of 320 GPCRs (Homo sapiens, UniProt P34972) (P34972 whole entry): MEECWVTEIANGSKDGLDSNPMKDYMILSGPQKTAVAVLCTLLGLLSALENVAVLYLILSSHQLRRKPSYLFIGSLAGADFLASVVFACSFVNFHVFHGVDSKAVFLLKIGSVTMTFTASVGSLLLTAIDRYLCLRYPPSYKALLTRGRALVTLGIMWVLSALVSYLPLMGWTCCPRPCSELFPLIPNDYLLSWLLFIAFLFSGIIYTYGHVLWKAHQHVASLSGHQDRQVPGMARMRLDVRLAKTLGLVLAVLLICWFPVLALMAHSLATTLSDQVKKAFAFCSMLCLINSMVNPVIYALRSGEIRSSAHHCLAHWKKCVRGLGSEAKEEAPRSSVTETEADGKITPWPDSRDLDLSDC

[5] = target: 320 GPCRs (Homo sapiens, UniProt O15303)
[6] = target: 320 GPCRs (Homo sapiens, UniProt O00574)
[7] = target: 320 GPCRs (Homo sapiens, UniProt Q9UKP6)
Sequence of 320 GPCRs (Homo sapiens, UniProt Q9UKP6) (Q9UKP6 whole entry): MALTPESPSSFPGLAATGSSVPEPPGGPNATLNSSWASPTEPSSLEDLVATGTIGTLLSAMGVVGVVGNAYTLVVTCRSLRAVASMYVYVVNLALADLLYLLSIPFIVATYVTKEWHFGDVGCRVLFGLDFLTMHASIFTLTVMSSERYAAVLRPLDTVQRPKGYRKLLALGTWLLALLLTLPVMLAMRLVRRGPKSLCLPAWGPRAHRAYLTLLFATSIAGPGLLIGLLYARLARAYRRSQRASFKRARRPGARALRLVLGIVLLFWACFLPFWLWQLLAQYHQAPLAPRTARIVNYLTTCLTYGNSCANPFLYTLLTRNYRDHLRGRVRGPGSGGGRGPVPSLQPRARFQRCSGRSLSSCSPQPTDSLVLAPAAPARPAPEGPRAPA

[8] = target: 320 GPCRs (Homo sapiens, UniProt Q9Y653)
Sequence of 320 GPCRs (Homo sapiens, UniProt Q9Y653) (Q9Y653 26-693): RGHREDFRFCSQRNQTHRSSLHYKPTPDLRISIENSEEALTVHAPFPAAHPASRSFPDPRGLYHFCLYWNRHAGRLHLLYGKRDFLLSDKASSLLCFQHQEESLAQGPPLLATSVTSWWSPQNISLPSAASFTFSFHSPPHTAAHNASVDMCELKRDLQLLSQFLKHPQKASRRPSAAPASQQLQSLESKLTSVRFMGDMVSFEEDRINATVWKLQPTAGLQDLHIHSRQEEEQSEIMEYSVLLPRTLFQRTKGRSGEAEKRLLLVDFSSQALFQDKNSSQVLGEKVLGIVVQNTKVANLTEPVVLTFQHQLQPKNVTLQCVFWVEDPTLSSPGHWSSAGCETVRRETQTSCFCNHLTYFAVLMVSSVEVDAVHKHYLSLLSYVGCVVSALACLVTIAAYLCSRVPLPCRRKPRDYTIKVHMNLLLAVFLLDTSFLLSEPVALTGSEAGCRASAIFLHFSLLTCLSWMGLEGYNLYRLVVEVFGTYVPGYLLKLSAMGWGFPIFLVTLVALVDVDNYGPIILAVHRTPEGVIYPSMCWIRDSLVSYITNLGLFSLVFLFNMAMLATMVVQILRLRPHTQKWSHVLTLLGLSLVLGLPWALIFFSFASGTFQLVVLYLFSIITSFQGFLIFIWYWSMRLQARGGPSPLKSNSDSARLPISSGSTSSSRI

[9] = target: 320 GPCRs (Homo sapiens, UniProt Q99677)
[10] = target: 320 GPCRs (Homo sapiens, UniProt P32239)
[11] = target: 320 GPCRs (Homo sapiens, UniProt P30411)
[12] = target: 320 GPCRs (Homo sapiens, UniProt P35462)
[13] = target: 320 GPCRs (Homo sapiens, UniProt O00421)
[14] = target: 320 GPCRs (Homo sapiens, UniProt P41595)
[15] = target: 320 GPCRs (Homo sapiens, UniProt P49685)
[16] = target: 320 GPCRs (Homo sapiens, UniProt P24530)
[17] = target: 320 GPCRs (Homo sapiens, UniProt P21731)
Sequence of 320 GPCRs (Homo sapiens, UniProt P21731) (P21731 whole entry): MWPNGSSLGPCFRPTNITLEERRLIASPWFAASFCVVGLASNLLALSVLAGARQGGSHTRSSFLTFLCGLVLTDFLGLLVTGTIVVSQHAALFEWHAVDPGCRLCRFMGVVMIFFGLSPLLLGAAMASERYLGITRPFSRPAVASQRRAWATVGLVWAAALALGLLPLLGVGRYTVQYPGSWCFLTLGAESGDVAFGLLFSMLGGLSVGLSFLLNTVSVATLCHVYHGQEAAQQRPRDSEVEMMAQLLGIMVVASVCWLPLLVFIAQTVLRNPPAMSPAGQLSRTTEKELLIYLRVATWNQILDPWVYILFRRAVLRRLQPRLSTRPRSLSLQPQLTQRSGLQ

[18] = target: 320 GPCRs (Homo sapiens, UniProt P43116)
[19] = target: 320 GPCRs (Homo sapiens, UniProt O14842)
[20] = target: 320 GPCRs (Homo sapiens, UniProt O00270)
[21] = target: 320 GPCRs (Homo sapiens, UniProt Q7Z7M1)
[22] = target: 320 GPCRs (Homo sapiens, UniProt P43088)
[23] = target: 320 GPCRs (Homo sapiens, UniProt Q9NPC1)
Sequence of 320 GPCRs (Homo sapiens, UniProt Q9NPC1) (Q9NPC1 whole entry): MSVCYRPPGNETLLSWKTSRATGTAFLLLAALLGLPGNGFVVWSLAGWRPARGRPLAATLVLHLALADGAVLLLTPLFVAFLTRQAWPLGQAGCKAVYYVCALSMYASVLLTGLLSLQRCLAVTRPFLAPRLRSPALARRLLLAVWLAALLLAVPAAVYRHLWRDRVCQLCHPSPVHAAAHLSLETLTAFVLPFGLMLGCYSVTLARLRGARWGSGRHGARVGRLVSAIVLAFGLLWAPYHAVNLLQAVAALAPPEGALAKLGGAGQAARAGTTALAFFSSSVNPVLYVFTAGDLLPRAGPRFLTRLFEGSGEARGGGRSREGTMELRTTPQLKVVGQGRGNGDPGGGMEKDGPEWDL

[24] = target: 320 GPCRs (Homo sapiens, UniProt Q99678)
Sequence of 320 GPCRs (Homo sapiens, UniProt Q99678) (Q99678 whole entry): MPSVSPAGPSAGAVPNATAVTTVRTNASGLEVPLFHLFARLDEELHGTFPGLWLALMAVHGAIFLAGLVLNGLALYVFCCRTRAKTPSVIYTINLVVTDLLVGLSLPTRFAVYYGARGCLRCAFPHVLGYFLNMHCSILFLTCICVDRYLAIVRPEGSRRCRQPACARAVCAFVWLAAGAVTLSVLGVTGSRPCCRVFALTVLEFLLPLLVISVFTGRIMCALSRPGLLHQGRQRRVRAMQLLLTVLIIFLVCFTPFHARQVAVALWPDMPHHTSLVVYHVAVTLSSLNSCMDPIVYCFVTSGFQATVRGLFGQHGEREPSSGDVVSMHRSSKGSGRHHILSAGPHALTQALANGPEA

[25] = target: 320 GPCRs (Homo sapiens, UniProt O15218)
Sequence of 320 GPCRs (Homo sapiens, UniProt O15218) (O15218 whole entry): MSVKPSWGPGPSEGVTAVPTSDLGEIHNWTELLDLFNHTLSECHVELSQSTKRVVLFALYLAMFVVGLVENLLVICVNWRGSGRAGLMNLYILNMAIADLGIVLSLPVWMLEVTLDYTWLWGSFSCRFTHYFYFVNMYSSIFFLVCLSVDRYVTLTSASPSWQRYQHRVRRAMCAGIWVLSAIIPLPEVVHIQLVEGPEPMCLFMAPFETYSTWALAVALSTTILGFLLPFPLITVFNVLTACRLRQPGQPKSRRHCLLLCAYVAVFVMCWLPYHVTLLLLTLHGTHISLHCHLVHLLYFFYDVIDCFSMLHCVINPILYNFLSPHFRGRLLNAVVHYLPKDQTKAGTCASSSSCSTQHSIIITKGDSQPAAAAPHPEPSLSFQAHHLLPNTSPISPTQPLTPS

[26] = target: 320 GPCRs (Homo sapiens, UniProt Q9HBX9)
[27] = target: 320 GPCRs (Homo sapiens, UniProt P30968)
Sequence of 320 GPCRs (Homo sapiens, UniProt P30968) (P30968 whole entry): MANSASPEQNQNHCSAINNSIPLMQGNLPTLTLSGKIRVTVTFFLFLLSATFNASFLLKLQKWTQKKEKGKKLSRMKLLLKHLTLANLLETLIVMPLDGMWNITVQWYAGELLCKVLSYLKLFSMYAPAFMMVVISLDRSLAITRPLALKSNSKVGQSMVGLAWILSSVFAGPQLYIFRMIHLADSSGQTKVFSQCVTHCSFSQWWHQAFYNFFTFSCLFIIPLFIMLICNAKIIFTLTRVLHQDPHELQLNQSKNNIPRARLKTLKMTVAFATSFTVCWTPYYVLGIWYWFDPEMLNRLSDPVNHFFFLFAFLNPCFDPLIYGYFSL

[28] = target: 320 GPCRs (Homo sapiens, UniProt Q96G91)
[29] = target: 320 GPCRs (Homo sapiens, UniProt Q96LB0)
[30] = target: 320 GPCRs (Homo sapiens, UniProt Q969N4)
[31] = target: 320 GPCRs (Homo sapiens, UniProt P41146)
Sequence of 320 GPCRs (Homo sapiens, UniProt P41146) (P41146 whole entry): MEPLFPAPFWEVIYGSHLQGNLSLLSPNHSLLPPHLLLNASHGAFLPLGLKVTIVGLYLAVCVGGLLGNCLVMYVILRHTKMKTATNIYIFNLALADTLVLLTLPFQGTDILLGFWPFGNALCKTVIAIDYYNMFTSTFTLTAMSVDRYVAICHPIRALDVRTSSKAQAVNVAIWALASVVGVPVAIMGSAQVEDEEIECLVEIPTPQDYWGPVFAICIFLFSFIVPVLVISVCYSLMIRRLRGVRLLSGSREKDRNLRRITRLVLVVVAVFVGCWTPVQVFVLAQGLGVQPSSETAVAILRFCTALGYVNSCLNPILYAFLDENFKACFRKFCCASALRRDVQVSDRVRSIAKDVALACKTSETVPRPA

[32] = target: 320 GPCRs (Homo sapiens, UniProt Q02643)
Sequence of 320 GPCRs (Homo sapiens, UniProt Q02643) (Q02643 23-423): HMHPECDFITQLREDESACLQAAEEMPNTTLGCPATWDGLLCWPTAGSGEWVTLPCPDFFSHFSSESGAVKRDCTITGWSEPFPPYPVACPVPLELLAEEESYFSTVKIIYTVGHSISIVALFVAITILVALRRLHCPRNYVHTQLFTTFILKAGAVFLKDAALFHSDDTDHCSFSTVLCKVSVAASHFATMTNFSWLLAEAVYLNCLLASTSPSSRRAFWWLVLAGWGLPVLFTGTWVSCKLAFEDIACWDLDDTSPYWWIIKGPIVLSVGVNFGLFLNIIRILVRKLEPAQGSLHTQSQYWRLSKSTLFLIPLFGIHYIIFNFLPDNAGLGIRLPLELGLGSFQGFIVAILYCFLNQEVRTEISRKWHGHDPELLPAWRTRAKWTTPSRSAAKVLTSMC

[33] = target: 320 GPCRs (Homo sapiens, UniProt Q96P69)
[34] = target: 320 GPCRs (Homo sapiens, UniProt Q8IZF4)
Sequence of 320 GPCRs (Homo sapiens, UniProt Q8IZF4) (Q8IZF4 22-528): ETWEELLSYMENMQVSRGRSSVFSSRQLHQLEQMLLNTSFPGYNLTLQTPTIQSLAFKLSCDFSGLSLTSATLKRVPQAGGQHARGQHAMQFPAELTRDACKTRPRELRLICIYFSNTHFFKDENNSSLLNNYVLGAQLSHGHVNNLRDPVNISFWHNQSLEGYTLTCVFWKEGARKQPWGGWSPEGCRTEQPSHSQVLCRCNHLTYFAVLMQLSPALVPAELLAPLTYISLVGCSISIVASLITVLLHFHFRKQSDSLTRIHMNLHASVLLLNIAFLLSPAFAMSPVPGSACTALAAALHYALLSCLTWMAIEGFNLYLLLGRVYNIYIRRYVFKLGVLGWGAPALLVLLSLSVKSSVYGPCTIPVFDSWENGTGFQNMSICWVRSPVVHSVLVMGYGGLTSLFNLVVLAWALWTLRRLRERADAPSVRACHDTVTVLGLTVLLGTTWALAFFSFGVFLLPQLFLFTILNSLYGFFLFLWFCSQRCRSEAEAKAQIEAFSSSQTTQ

[35] = target: 320 GPCRs (Homo sapiens, UniProt P32238)
Sequence of 320 GPCRs (Homo sapiens, UniProt P32238) (P32238 whole entry): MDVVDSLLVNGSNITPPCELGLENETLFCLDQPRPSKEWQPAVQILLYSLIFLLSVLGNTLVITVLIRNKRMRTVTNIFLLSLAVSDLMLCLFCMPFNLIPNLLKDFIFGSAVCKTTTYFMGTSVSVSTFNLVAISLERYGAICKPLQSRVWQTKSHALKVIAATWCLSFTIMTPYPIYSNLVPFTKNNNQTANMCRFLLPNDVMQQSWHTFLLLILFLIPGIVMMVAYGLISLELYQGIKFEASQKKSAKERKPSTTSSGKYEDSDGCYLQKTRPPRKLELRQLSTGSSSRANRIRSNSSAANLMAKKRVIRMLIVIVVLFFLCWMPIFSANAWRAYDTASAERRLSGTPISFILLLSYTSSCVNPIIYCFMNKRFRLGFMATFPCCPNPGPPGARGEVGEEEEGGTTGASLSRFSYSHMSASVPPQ

[36] = target: 320 GPCRs (Homo sapiens, UniProt Q8TDV2)
[37] = target: 320 GPCRs (Homo sapiens, UniProt Q13258)
[38] = target: 320 GPCRs (Homo sapiens, UniProt O95136)
[39] = target: 320 GPCRs (Homo sapiens, UniProt P25090)
[40] = target: 320 GPCRs (Homo sapiens, UniProt Q8NFJ6)
[41] = target: 320 GPCRs (Homo sapiens, UniProt O00254)
[42] = target: 320 GPCRs (Homo sapiens, UniProt P18825)
[43] = target: 320 GPCRs (Homo sapiens, UniProt P14416)

SMILES: O=C(O)C1CCC2(CC1)CC(Nc1ncnc3[nH]c4c(F)cccc4c13)C2 (stereo not shown) [Compound 74, OC(=O)C1CCC2(CC(C2)NC=3N=CN=C4NC=5C(F)=CC=CC5C34)CC1]
- RLU (Fold over Basal) [1]: 1.2 Fold over Basal and 1.3 Fold over Basal and 0.8 Fold over Basal and 1 Fold over Basal
- RLU (Fold over Basal) [2]: 0.9 Fold over Basal and 1.1 Fold over Basal and 0.8 Fold over Basal
- RLU (Fold over Basal) [3]: 0.6 Fold over Basal and 1 Fold over Basal
- RLU (Fold over Basal) [4]: 2.1 Fold over Basal and 1.3 Fold over Basal and 1.7 Fold over Basal and 1.5 Fold over Basal
- RLU (Fold over Basal) [5]: 1.6 Fold over Basal and 0.8 Fold over Basal and 1 Fold over Basal
- RLU (Fold over Basal) [6]: 0.7 Fold over Basal and 1.2 Fold over Basal and 0.9 Fold over Basal and 0.6 Fold over Basal
- RLU (Fold over Basal) [7]: 0.6 Fold over Basal and 0.7 Fold over Basal and 0.9 Fold over Basal
- RLU (Fold over Basal) [8]: 0.9 Fold over Basal and 0.7 Fold over Basal and 0.8 Fold over Basal
- RLU (Fold over Basal) [9]: 0.9 Fold over Basal and 0.7 Fold over Basal and 0.8 Fold over Basal
- RLU (Fold over Basal) [10]: 0.9 Fold over Basal and 1.1 Fold over Basal and 0.8 Fold over Basal
- RLU (Fold over Basal) [11]: 0.4 Fold over Basal and 0.5 Fold over Basal and 0.6 Fold over Basal
- RLU (Fold over Basal) [12]: 0.5 Fold over Basal and 0.6 Fold over Basal
- RLU (Fold over Basal) [13]: 2.1 Fold over Basal and 1.6 Fold over Basal and 1.9 Fold over Basal and 2.4 Fold over Basal
- RLU (Fold over Basal) [14]: 0.8 Fold over Basal and 0.9 Fold over Basal and 0.7 Fold over Basal and 1 Fold over Basal
- RLU (Fold over Basal) [15]: 0.4 Fold over Basal and 0.5 Fold over Basal and 0.6 Fold over Basal and 0.7 Fold over Basal
- RLU (Fold over Basal) [16]: 1.2 Fold over Basal and 0.6 Fold over Basal and 0.8 Fold over Basal and 0.9 Fold over Basal
- RLU (Fold over Basal) [17]: 1.2 Fold over Basal and 1.1 Fold over Basal and 0.7 Fold over Basal
- RLU (Fold over Basal) [18]: 1.1 Fold over Basal and 1.2 Fold over Basal and 2 Fold over Basal and 1.3 Fold over Basal
- RLU (Fold over Basal) [19]: 1.6 Fold over Basal and 0.9 Fold over Basal
- RLU (Fold over Basal) [20]: 1.8 Fold over Basal and 1.3 Fold over Basal
- RLU (Fold over Basal) [21]: 1.3 Fold over Basal and 0.7 Fold over Basal
- RLU (Fold over Basal) [22]: 1.2 Fold over Basal and 1.4 Fold over Basal and 1 Fold over Basal
- RLU (Fold over Basal) [23]: 0.9 Fold over Basal and 1.5 Fold over Basal and 0.8 Fold over Basal and 1.3 Fold over Basal
- RLU (Fold over Basal) [24]: 0.9 Fold over Basal and 1.6 Fold over Basal and 0.8 Fold over Basal
- RLU (Fold over Basal) [25]: 0.5 Fold over Basal and 0.9 Fold over Basal and 0.6 Fold over Basal
- RLU (Fold over Basal) [26]: 0.7 Fold over Basal and 0.9 Fold over Basal and 0.5 Fold over Basal
- RLU (Fold over Basal) [27]: 1 Fold over Basal and 0.5 Fold over Basal and 0.6 Fold over Basal
- RLU (Fold over Basal) [28]: 1 Fold over Basal and 0.7 Fold over Basal and 1.1 Fold over Basal and 1.4 Fold over Basal
- RLU (Fold over Basal) [29]: 1 Fold over Basal and 1.4 Fold over Basal and 0.9 Fold over Basal
- RLU (Fold over Basal) [30]: 0.7 Fold over Basal and 0.5 Fold over Basal
- RLU (Fold over Basal) [31]: 0.8 Fold over Basal and 0.7 Fold over Basal and 1.3 Fold over Basal and 0.9 Fold over Basal
- RLU (Fold over Basal) [32]: 0.7 Fold over Basal and 0.6 Fold over Basal and 0.8 Fold over Basal
- RLU (Fold over Basal) [33]: 1 Fold over Basal and 0.5 Fold over Basal and 0.9 Fold over Basal
- RLU (Fold over Basal) [34]: 0.8 Fold over Basal and 1.1 Fold over Basal and 1.2 Fold over Basal
- RLU (Fold over Basal) [35]: 1.2 Fold over Basal and 0.7 Fold over Basal and 0.6 Fold over Basal and 1 Fold over Basal
- RLU (Fold over Basal) [36]: 0.8 Fold over Basal and 0.5 Fold over Basal and 1 Fold over Basal
- RLU (Fold over Basal) [37]: 0.7 Fold over Basal and 1 Fold over Basal and 1.1 Fold over Basal
- RLU (Fold over Basal) [38]: 0.3 Fold over Basal and 0.2 Fold over Basal
- RLU (Fold over Basal) [39]: 1.2 Fold over Basal and 1.5 Fold over Basal and 1.6 Fold over Basal and 0.9 Fold over Basal
- RLU (Fold over Basal) [40]: 0.7 Fold over Basal and 1.4 Fold over Basal and 1.3 Fold over Basal and 1.1 Fold over Basal
- RLU (Fold over Basal) [41]: 2 Fold over Basal and 1.8 Fold over Basal and 3 Fold over Basal and 2.4 Fold over Basal
- RLU (Fold over Basal) [42]: 0.6 Fold over Basal and 0.8 Fold over Basal
- RLU (Fold over Basal) [43]: 0.6 Fold over Basal and 0.5 Fold over Basal
